Entries after “also recorded” stand apart in the source; their conditions may differ.
Assays:
U2OS cells = assay: Circadian period assay in Bmal1-dLuc U2OS reporter cells; format: cell-based, human
Procedure: Next, we tested if the observed light-dependent CKIα inhibition translates into photomodulation of the circadian period in human U2OS cells (Fig. 2d). The Bmal1-dLuc reporter cell line contains the coding sequence of destabilized luciferase driven by the Bmal1 gene promoter sequence. The cell culture medium for luminescence recording includes a high concentration of luciferin (0.2 mM), a substrate for luciferase, which strongly absorbs UV light (Supplementary Fig. 30). […] As the circadian period change is directly correlated with the potency and concentration of the inhibitor[10], the cells were treated with photoswitchable modulators using a broad range of concentrations.
In comparison to the kinase assay, the direct use of UV light for preventing a thermal back-isomerization of the cis-isomer was not feasible due to the cell-damaging effect and the presence of luciferin in the medium. Therefore, the modulators were kept in the dark or photo-isomerized in DMSO prior to the addition, without further irradiation during the circadian assay. All three modulators lengthened the period in the U2OS cells both in the dark and upon irradiation (Fig. 2d). […] Altogether, based on the efficient generation of the cis-isomer under irradiation, retained potency and promising light-modulation of CKIα inhibition, the meta-substituted modulator 4 was identified as representing lead substitution pattern for further investigation.
Stable U2OS reporter cells harboring Bmal1-dLuc reporter were suspended in phenol red-free culture medium [DMEM (D2902, Sigma) supplemented with 10% fetal bovine serum, 3.5 mg/mL D-glucose, 3.7 mg/mL sodium bicarbonate, 0.29 mg/mL L-glutamine, 100 units/mL penicillin, and 100 µg/mL streptomycin] and plated onto a white, solid-bottom 384-well plates at 30 µL (3000 cells) per well. After 2 days, 40 µL of phenol red-free explant medium [DMEM (D2902, Sigma) supplemented with 2% B27 (Gibco), 10 mM HEPES, 3.5 mg/mL D-glucose, 0.38 mg/mL sodium bicarbonate, 0.29 mg/mL L-glutamine, 100 units/mL penicillin, 100 µg/mL streptomycin, and 0.2 mM luciferin; pH 7.2] was dispensed into each well, followed by the application of 0.5 μL of compounds (dissolved in DMSO; final 0.7% DMSO; pre-irradiated with UV for 60 min, white LED for 10 min, and/or green LED for 60 min when indicated). The plate was covered with an optically clear film, and subjected to irradiation with 530 nm LED lamp (3 × 550 mW, λmax = 530 nm, FWHM 36 nm, Sahlmann Photochemical Solutions) or 400 nm LED lamp (3 × 1000 mW, λmax = 400 nm, FWHM 11.9 nm, Sahlmann Photochemical Solutions) from 12 cm distance for 30 min. Compound handling and irradiation were conducted in a dark room under red lamp illumination. Luminescence was recorded every 100 min in a microplate reader, Infinite M200Pro (Tecan). For the phase control experiments, cellular light irradiation was performed in a dark 32 °C room and luminescence was recorded in a microplate reader Synergy H1 (BioTek) placed in the same room, to avoid possible effect of transient temperature change on the phase. Circadian period and phase were determined from luminescence rhythms by a curve fitting program MultiCycle (Actimetrics). Data from the first day was excluded from analysis, because of transient changes in luminescence upon medium change. Statistical significance was evaluated using two-way analysis of variance (ANOVA) followed by a Sidak’s multiple comparisons test or one-way ANOVA followed by a Tukey’s multiple comparisons test using Prism software (GraphPad Software).

[1] = Chemical stability under dark and irradiation conditions followed by LCMS; format: physicochemical; settings: 40 µM in kinase assay buffer or cell culture medium, dark, 365 nm 3 h, 400 nm 30 min
Procedure: LCMS traces of stability studies
Supplementary Figure 8. Chemical stability of compound 3 under dark and irradiation conditions followed by LCMS. All the samples were prepared as 40 µM solution in buffer or cell culture medium. ‘Buffer’ and ‘medium’ samples were injected immediately upon dissolving compound 3, ‘buffer_3h_dark’ was injected after 3 h of keeping the solution in dark, ‘buffer_3h_365nm’ after irradiation of the sample for 3 h with UV light in kinase assay buffer, and ‘medium_30min_400nm’ after 30 min of irradiation with 400 nm in cell culture medium. The trans-isomer was followed at the retention time of 10.41-10.47 min and the cis-isomer at the retention time of 8.84-8.90 min. Mass spectra of both isomers in different […]
(1 picture or pasted object on this page, not shown here)

[2] = Fatigue on repeated photoisomerization cycles; format: physicochemical
Procedure: Upon reaching PSS distribution with green light, thermal back-isomerization was followed in the dark for 14 h (gray background). After this period, violet light was applied (violet rectangle) for 8 min to confirm the presence of the remaining cis-isomer and estimate cis-to-trans ratio. Green light allowed for switching to the cis-isomer once again (green rectangle), showing that in situ isomerization is possible. c Reversible photochromism in cell culture medium followed at 312 nm absorbance. […] The thermally adapted sample is shown in black (dark), irradiated with green light in vitro (pre-incubation, shown in green), with violet light in cellulo (post-incubation, shown in gray), and with green light in vitro followed by violet light in cellulo in purple. The control experiment with longdaysin is also shown. Luminescence rhythm profiles and data for DMSO-treated cells are shown in Supplementary Figs. 25 and 26, respectively. Luminescence is given in arbitrary units. n = 3 biologically independent samples for the CKIα enzymatic assay (d), n = 2 biologically independent samples for the CKIδ enzymatic assay (d), and n = 3 biologically independent samples for the cellular assay (e). […]
Supplementary Figure 30. […] The spectrum is measured at pH 7.4 (0.1 mM in water) and in presence of 0.1 mM concertation of luciferin. […]

| SMILES | effect of UV light irradiation on period lengthening (U2OS cells; UV (365 nm) pre-irradiated) | recovery of biological activity upon back-isomerization with white light (U2OS cells; UV light followed by white light) | period lengthening effect under dark conditions (U2OS cells; dark) | chemical stability (reduction or oxidation of the azo group) [1] | fatigue upon repeated illumination cycles [2] | period change, first 3 days, kept in dark (U2OS cells; 8 μM (Fig. 5b)) | period lengthening, dark treatment of green-irradiated cells, additional 3 days (U2OS cells; 8 μM (Fig. 5b)) | period lengthening, violet light treatment of dark-kept cells (U2OS cells; 8 μM (Fig. 5b)) | period lengthening after violet light on the third day of green-irradiated cells (U2OS cells; 8 μM, 400 nm in situ (Fig. 5b)) | period lengthening, three additional days after green light irradiation (U2OS cells; 8 μM, green light 530 nm in cellulo after 3 days (Fig. 5a)) | period change after photoisomerization with green light in vitro (U2OS cells; 8 µM, green light 530 nm pre-incubation (Fig. 4e)) | period change, first 3 days, green light-irradiated cells (U2OS cells; 8 μM, green light in cellulo at start (Fig. 5b)) | period lengthening after green light in vitro and violet light in cellulo (U2OS cells; 8 µM, in situ back-photoisomerization 400 nm (Fig. 4e)) | period lengthening vs DMSO, three additional days, non-irradiated (U2OS cells; 8 μM, kept dark (Fig. 5a)) | period lengthening, trans-isomer (dark) (U2OS cells; 8 µM, thermally adapted, dark (Fig. 4e)) | period change, first 3 days in the dark (U2OS cells; 8 μM, trans-9 applied (Fig. 5a)) | effect of violet light only on dark samples on the circadian period activity (U2OS cells; violet light 400 nm in cellulo (Fig. 4e)) |
| --- | --- | --- | --- | --- | --- | --- | --- | --- | --- | --- | --- | --- | --- | --- | --- | --- | --- |
| Cc1nn(C)c(C)c1/N=N/c1cccc(CNc2ncnc3c2ncn3C(C)C)c1 [Compound 8] | suppressed by UV light irradiation | full recovery | strong period lengthening effect | Products of reduction or oxidation were not observed; also recorded: no observable reduction or oxidation | low fatigue |  |  |  |  |  |  |  |  |  |  |  |  |
| CC(C)n1cnc2c(NCc3ccc(F)c(/N=N/c4c(F)cccc4F)c3F)ncnc21 [Compound 9] |  |  |  | Products of reduction or oxidation were not | very low fatigue; also recorded: Almost no fatigue | 7 h | 5 h | 8 h | 8 h | 2 h | 1 h | 2 h | 4 h | 10 h | 4 h | 5 h | no effect |

— article PMC8155176, “Reversible modulation of circadian time with chronophotopharmacology” (Nature Communications, 2021)
